Each structure is given as a SMILES string.

Broadly, the IC50 is the midpoint of a concentration-inhibition curve.

Test [1] concerns the target T1, Phospho-EGFR (Tyr1068) in H1975 cells (Homo sapiens, UniProt P00533, L858R/T790M).
T1 construct: host or cells: H1975
The test is described as follows: HTRF pEGFR/total EGFR in H1975 cells. The note with it: ratio pEGFR/total EGFR, compound 3 hours. The test is classed as cell-based. As to the method: (§1) H1975 cells (ATCC CRL-5908) were plated at 20,000 cells per well in 96 well plates and placed at 37° C. 5% CO2. Once adhered (after 24 h) cells were treated with compounds dissolved in DMSO at a final concentration of 0.1% DMSO in media. Compounds were diluted in media then added to cells for 3 hours in duplicate. Compound and media were removed from the cells, then 50 ul of HTRF lysis buffer is added (lysis buffer was diluted from 4× stock to 1× in DI water, with 1% blocking agent also added). Cells were lysed on a plate shaker (2000 rpm) for 30 minutes at room temperature. pEGFR expression was monitored using the Cisbio Phospho-EGFR (Tyri068) cellular kit (64EG1PEH). Total EGFR expression was monitored using the Cisbio Total EGFR cellular kit (64NG1PEH) as per manufacturer's instructions. Fluorescence emission was read at two different wavelengths (665 nm and 620 nm) on a PheraStar. Results were calculated as ratio of pEGFR/total EGFR and then percentage of 0 μM control.
In general terms: TR-FRET usually uses a lanthanide donor and a delayed reading to cut background.

In test [2] the target is T2, Phospho-EGFR (Tyr1068) in H1975 C797S cells (CRISPR-edited EGFR C797S) (Homo sapiens, UniProt P00533, C797S/L858R/T790M).
T2 construct: host or cells: H1975 C797S (CRISPR-edited)
The test can be described thus: HTRF pEGFR/total EGFR in H1975 C797S cells. The test is classed as cell-based. Particulars: ratio pEGFR/total EGFR, compound 3 hours. How it is done: as §1, with “[…]. Once” for “H1975 cells (ATCC CRL-5908) were plated at 20,000 cells per well in 96 well plates and placed at 37° C. 5% CO2. Once”, “buffer was” for “buffer is”, “Phospho-EGFR (Tyr1068)” for “Phospho-EGFR (Tyri068)”

Test [3] addresses T3, Phospho-EGFR (Tyr1068) in A431 cells (Homo sapiens, UniProt P00533).
T3 construct: endogenous in cells; host or cells: A431
The test is described as follows: HTRF pEGFR/total EGFR in A431 cells with EGF stimulation. The test is classed as cell-based. Particulars: ratio pEGFR/total EGFR, compound 2.5 hours then 100 ng/ml EGF 30 mins. As to the method:
Cells were plated at 20,000 cells per well in 96 well plates and placed at 37° C. 5% CO2. Once adhered (after 24 h) cells were treated with compounds dissolved in DMSO at a final concentration of 0.1% DMSO in media. Compounds were diluted in media then added to cells for 2.5 hours in duplicate, 100 ng/ml EGF (ThermoFisher, PHG0311) was added to all compound treated cells as well as a control for 30 mins. Compound and media were removed from the cells, then 50 ul of HTRF lysis buffer was added (lysis buffer was diluted from 4× stock to 1× in DI water, with 1% blocking agent also added). Cells were lysed on a plate shaker (2000 rpm) for 30 minutes at room temperature. pEGFR expression was monitored using the Cisbio Phospho-EGFR (Tyr1068) cellular kit (64EG1PEH). Total EGFR expression was monitored using the Cisbio Total EGFR cellular kit (64NG1PEH) as per manufacturer's instructions. Fluorescence emission was read at two different wavelengths (665 nm and 620 nm) on a PheraStar. Results were calculated as ratio of pEGFR/total EGFR and then percentage of 0 μM control.

The target in test [4] is CtermHisTag-mEGFR Wild type (Homo sapiens, UniProt P00533). The test can be described thus: biochemical.
Sequence of CtermHisTag-mEGFR Wild type (P00533 whole entry): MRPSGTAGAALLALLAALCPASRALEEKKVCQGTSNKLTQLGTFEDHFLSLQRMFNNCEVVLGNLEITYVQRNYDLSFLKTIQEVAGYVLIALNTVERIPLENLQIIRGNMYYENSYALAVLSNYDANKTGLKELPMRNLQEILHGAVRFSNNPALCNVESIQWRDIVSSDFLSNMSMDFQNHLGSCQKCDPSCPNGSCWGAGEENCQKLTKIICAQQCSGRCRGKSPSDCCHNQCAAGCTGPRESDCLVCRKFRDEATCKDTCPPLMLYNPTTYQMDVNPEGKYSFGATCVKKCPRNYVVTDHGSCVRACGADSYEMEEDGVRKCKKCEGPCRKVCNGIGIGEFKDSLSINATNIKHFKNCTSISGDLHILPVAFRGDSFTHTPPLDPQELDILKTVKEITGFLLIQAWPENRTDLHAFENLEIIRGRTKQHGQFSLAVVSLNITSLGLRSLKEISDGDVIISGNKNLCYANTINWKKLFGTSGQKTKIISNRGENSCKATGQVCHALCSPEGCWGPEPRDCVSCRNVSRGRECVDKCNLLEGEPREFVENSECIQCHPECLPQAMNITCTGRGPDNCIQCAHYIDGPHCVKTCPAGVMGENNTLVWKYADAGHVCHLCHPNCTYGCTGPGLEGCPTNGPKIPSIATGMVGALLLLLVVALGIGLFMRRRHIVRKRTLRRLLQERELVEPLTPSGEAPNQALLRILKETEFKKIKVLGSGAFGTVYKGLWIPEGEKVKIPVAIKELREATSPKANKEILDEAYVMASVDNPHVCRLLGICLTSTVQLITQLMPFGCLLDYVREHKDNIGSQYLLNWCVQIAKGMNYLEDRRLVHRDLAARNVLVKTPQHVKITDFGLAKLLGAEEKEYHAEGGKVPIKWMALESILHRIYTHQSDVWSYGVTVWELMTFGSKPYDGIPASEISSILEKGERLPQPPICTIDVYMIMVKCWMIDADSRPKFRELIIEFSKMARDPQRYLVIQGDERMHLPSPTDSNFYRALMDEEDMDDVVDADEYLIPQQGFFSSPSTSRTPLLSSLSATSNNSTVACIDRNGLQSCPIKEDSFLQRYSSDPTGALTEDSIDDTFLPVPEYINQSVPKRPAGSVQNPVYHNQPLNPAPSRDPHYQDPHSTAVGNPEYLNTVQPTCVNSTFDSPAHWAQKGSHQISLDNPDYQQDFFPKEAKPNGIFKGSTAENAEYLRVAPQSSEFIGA

T3 sequence (P00533 25-1210): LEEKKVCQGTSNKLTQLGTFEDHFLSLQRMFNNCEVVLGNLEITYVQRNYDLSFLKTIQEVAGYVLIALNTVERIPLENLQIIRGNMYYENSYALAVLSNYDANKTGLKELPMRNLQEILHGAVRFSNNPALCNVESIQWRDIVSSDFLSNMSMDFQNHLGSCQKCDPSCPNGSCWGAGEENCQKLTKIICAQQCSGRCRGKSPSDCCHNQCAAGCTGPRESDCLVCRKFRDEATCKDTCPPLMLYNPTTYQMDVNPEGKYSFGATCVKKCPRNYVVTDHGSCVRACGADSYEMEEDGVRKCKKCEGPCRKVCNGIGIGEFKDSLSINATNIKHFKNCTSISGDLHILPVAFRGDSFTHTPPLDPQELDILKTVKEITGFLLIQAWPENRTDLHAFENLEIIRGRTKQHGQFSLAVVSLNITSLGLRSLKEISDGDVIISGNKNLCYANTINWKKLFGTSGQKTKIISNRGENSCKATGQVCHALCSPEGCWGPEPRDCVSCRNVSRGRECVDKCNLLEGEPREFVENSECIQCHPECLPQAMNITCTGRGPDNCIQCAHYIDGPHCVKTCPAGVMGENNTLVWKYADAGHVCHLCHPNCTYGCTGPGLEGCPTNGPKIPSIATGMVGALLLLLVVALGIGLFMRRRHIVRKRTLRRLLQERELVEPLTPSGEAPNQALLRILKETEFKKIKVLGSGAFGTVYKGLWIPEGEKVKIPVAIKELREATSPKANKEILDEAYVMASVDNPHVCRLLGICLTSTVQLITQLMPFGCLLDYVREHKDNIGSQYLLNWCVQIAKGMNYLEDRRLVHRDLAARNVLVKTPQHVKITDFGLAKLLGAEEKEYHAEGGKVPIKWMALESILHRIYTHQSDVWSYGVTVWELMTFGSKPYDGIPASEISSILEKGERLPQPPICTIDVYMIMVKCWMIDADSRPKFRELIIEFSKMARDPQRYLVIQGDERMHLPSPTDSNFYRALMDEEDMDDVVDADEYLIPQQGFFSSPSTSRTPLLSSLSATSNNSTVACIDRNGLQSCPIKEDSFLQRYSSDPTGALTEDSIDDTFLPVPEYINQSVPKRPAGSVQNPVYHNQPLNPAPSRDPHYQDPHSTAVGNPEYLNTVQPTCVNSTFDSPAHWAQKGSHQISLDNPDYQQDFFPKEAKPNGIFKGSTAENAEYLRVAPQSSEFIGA
T1 sequence (P00533 25-1210 T790M/L858R): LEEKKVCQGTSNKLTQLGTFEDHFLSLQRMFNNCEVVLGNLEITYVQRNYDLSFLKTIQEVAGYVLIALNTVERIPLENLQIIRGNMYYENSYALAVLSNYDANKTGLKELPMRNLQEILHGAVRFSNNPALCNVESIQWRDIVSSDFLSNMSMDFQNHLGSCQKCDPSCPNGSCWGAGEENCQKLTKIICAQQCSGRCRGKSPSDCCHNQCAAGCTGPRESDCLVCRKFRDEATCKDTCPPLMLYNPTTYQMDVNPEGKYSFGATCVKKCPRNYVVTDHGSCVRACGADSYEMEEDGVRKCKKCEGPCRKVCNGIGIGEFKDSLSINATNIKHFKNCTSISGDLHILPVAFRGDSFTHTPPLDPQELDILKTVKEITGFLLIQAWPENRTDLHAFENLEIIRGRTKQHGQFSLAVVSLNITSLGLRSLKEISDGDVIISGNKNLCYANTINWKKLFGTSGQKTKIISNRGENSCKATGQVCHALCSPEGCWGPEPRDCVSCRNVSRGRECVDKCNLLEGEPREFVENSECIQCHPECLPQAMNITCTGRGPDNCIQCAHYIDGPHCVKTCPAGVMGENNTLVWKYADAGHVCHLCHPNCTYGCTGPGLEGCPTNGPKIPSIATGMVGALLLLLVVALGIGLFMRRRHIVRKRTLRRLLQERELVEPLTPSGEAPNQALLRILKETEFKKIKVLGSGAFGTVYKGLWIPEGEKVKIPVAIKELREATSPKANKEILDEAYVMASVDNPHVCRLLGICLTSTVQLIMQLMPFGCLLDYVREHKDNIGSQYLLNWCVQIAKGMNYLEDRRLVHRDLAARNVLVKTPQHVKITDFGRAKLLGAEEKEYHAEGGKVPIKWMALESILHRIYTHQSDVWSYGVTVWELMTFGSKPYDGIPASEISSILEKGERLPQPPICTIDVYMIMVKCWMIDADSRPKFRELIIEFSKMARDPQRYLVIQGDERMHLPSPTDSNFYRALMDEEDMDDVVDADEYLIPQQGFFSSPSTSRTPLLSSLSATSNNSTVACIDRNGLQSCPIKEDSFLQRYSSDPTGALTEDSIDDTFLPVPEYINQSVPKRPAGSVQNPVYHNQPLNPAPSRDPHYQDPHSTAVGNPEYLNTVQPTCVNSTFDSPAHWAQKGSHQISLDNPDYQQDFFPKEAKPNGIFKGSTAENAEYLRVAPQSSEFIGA
T2 sequence (P00533 25-1210 T790M/C797S/L858R): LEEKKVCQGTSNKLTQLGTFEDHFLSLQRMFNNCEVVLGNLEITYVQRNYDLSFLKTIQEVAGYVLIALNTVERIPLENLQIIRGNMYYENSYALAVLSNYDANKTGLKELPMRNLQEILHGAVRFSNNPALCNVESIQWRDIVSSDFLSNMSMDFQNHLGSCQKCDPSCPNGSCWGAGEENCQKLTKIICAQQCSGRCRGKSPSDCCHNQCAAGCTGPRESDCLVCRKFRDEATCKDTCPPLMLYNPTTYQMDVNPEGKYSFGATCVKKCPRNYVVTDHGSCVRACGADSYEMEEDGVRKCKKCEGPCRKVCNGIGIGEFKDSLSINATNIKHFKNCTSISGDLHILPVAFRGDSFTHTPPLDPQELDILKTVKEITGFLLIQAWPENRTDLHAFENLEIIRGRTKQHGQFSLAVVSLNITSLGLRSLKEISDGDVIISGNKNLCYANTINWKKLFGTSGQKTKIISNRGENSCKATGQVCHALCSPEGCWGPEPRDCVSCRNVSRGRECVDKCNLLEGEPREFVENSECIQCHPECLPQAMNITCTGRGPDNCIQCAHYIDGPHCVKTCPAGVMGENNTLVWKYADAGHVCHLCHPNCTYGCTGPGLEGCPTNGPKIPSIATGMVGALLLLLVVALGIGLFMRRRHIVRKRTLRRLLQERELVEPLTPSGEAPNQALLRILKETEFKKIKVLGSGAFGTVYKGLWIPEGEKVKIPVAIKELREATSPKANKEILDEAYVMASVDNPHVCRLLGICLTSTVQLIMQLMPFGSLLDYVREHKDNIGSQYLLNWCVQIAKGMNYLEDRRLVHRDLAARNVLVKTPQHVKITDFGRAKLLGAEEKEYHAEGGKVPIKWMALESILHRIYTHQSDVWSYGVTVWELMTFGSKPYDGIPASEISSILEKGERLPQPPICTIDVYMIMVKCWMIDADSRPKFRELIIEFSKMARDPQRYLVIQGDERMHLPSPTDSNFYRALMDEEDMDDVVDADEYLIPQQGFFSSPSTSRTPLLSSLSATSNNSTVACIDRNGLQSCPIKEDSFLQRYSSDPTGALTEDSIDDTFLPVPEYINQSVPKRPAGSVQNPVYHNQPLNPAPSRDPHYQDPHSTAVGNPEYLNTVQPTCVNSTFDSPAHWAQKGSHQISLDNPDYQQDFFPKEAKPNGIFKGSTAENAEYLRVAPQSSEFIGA

Regarding `C#Cc1cc(=O)n(-c2ccccc2)c2nc(Nc3ccc(N4CCC(N(C)C)CC4)cc3)ncc12` [Example 33, 2-({4-[4-(Dimethylamino)piperidin-1-yl]phenyl}amino)-5-ethynyl-8-phenylpyrido[2,3-d]pyrimidin-7-one], the IC50 in test [1] was < 500 nM; in test [2], < 500 nM; in test [3], 1 to 3 µM; in test [4], < 1000 nM.
Regarding `C#Cc1cc(=O)n(-c2ccccc2)c2nc(Nc3ccc(N(C)CCN(C)C)cc3)ncc12` [Example 34, 2-((4-((2-(Dimethylamino)ethyl)(methyl)amino)phenyl)amino)-5-ethynyl-8-phenylpyrido[2,3-d]pyrimidin-7(8H)-one], the IC50 in test [1] was < 500 nM; in test [2] it was > 3000 nM; in test [3], > 3 µM; in test [4], < 1000 nM.
Consider `C#Cc1cc(=O)n(-c2ccccc2)c2nc(Nc3ccc(N(C)C(=O)CCOC)cc3OC)ncc12` [Example 36, N-(4-((5-Ethynyl-7-oxo-8-phenyl-7,8-dihydropyrido[2,3-d]pyrimidin-2-yl)amino)-3-methoxyphenyl)-3-methoxy-N-methylpropanamide], for which the IC50 in test [1] is 1000 to 3000 nM; in test [2], 1000 to 3000 nM; in test [3] it was > 3 µM; in test [4], 1000 to 10000 nM.
In the case of `C#Cc1cc(=O)n(-c2ccccc2)c2nc(Nc3ccc(N4CCN(C)CC4)cc3)ncc12` [Example 37, 5-Ethynyl-2-((4-(4-methylpiperazin-1-yl)phenyl)amino)-8-phenylpyrido[2,3-d]pyrimidin-7(8H)-one], the concentration for half-maximal inhibition (IC50) in test [1] was < 500 nM; in test [2] it was 1000 to 3000 nM; in test [3], 1 to 3 µM; in test [4], < 1000 nM.
In the case of `C#Cc1cc(=O)n(-c2ccccc2)c2nc(Nc3ccc(N4CCNC5(CC5)C4)cc3)ncc12` [Example 38, 2-[(4-{4,7-Diazaspiro[2.5]octan-7-yl}phenyl)amino]-5-ethynyl-8-phenylpyrido[2,3-d]pyrimidin-7-one], the concentration for half-maximal inhibition (IC50) was < 500 nM in test [1], < 500 nM in test [2], > 3 µM in test [3] and < 1000 nM in test [4].
For the compound `C#Cc1cc(=O)n(-c2ccccc2)c2nc(Nc3ccc(N4CCC(N5CC(COC)C5)CC4)cc3)ncc12` [Example 39, 5-Ethynyl-2-[(4-{4-[3-(methoxymethyl)azetidin-1-yl]piperidin-1-yl}phenyl)amino]-8-phenylpyrido[2,3-d]pyrimidin-7-one], the IC50 was < 500 nM in test [1], < 500 nM in test [2], 1 to 3 µM in test [3] and < 1000 nM in test [4].
Turning to `C#Cc1cc(=O)n(-c2ccccc2)c2nc(Nc3ccc(N4CCC(N5CC(C(C)(C)O)C5)CC4)cc3)ncc12` [Example 40, 5-Ethynyl-2-[(4-{4-[3-(2-hydroxypropan-2-yl)azetidin-1-yl]piperidin-1-yl}phenyl)amino]-8-phenylpyrido[2,3-d]pyrimidin-7-one], the IC50 in test [1] is < 500 nM; in test [2], < 500 nM; in test [3], 1 to 3 µM; in test [4] it was < 1000 nM.
Take `C#Cc1cc(=O)n(C)c2nc(Nc3ccc(N(C)CCN(C)C)cc3)ncc12` [Example 43, 2-[(4-{[2-(Dimethylamino)ethyl](methyl)amino}phenyl)amino]-5-ethynyl-8-methylpyrido[2,3-d]pyrimidin-7-one]: the concentration for half-maximal inhibition (IC50) in test [1] is < 500 nM; in test [2], < 500 nM; in test [3], > 3 µM; in test [4] it was 1000 to 10000 nM.
Regarding `C#Cc1cc(=O)n(C)c2nc(Nc3cc(-c4cnn(C)c4)c(N4CCOCC4)cc3OC)ncc12` [Example 44, 5-Ethynyl-2-{[2-methoxy-5-(1-methylpyrazol-4-yl)-4-(morpholin-4-yl)phenyl]amino}-8-methylpyrido[2,3-d]pyrimidin-7-one], the half-inhibitory concentration (IC50) in test [1] was 500 to 1000 nM; in test [2], 1000 to 3000 nM; in test [3], > 3 µM; in test [4], < 1000 nM.
Turning to `C#Cc1cc(=O)n(C)c2nc(Nc3ccc(N4CCN(C)CC4)cc3)ncc12` [Example 45, 5-Ethynyl-8-methyl-2-{[4-(4-methylpiperazin-1-yl)phenyl]amino}pyrido[2,3-d]pyrimidin-7-one], the IC50 was < 500 nM in test [1], < 500 nM in test [2], > 3 µM in test [3] and < 1000 nM in test [4].
As for `C#Cc1cc(=O)n(C)c2nc(Nc3ccc(OCCN(C)C)cc3)ncc12` [Example 46, 2-({4-[2-(Dimethylamino)ethoxy]phenyl}amino)-5-ethynyl-8-methylpyrido[2,3-d]pyrimidin-7-one], the half-inhibitory concentration (IC50) in test [1] was < 500 nM; in test [2], < 500 nM; in test [3], > 3 µM; in test [4], 1000 to 10000 nM.
As for `C#Cc1cc(=O)n(C)c2nc(Nc3ccc(N(C)CCN(C)C)c(-c4cnn(C)c4)c3)ncc12` [Example 47, 2-[(4-{[2-(Dimethylamino)ethyl](methyl)amino}-3-(1-methylpyrazol-4-yl)phenyl)amino]-5-ethynyl-8-methylpyrido[2,3-d]pyrimidin-7-one], the IC50 in test [1] is < 500 nM; in test [2] it was 500 to 1000 nM; in test [3], > 3 µM; in test [4] it was < 1000 nM.
Taken in the same sequence, the figures for `C#Cc1cc(=O)n(C)c2nc(Nc3ccc(N4CCN(C)CC4)cc3OC)ncc12` [Example 49, 5-Ethynyl-2-{[2-methoxy-4-(4-methylpiperazin-1-yl)phenyl]amino}-8-methylpyrido[2,3-d]pyrimidin-7-one] were < 500 nM, 500 to 1000 nM, > 3 µM and < 1000 nM.
Taken in the same sequence, the figures for `C#Cc1cc(=O)n(C)c2nc(Nc3ccc(N4CCN(C)CC4)c(NC(C)=O)c3)ncc12` [Example 50, N-[5-({5-Ethynyl-8-methyl-7-oxopyrido[2,3-d]pyrimidin-2-yl}amino)-2-(4-methylpiperazin-1-yl)phenyl]acetamide] were < 500 nM, 500 to 1000 nM, > 3 µM and < 1000 nM.
Taken in the same sequence, the figures for `C#Cc1cc(=O)n(C)c2nc(Nc3ccc(N4CCN(C)CC4)c(NC(=O)CC)c3)ncc12` [Example 51, N-[5-({5-Ethynyl-8-methyl-7-oxopyrido[2,3-d]pyrimidin-2-yl}amino)-2-(4-methylpiperazin-1-yl)phenyl]propanamide] were < 500 nM, < 500 nM, 1 to 3 µM and < 1000 nM.
Consider `C#Cc1cc(=O)n(C)c2nc(Nc3cccc(N(C)CCN(C)C)c3)ncc12` [Example 52, 2-[(3-{[2-(Dimethylamino)ethyl](methyl)amino}phenyl)amino]-5-ethynyl-8-methylpyrido[2,3-d]pyrimidin-7-one], for which the IC50 in test [1] is < 500 nM; in test [2], < 500 nM; in test [3], > 3 µM; in test [4] it was < 1000 nM.
With `C#Cc1cc(=O)n(C)c2nc(Nc3cccc(N(C)C(=O)CN(C)C)c3)ncc12` [Example 53, 2-(Dimethylamino)-N-[3-({5-ethynyl-8-methyl-7-oxopyrido[2,3-d]pyrimidin-2-yl}amino)phenyl]-N-methylacetamide], the IC50 in test [1] is > 3000 nM; in test [2], > 3000 nM; in test [3], > 3 µM; in test [4], 1000 to 10000 nM.
In the case of `C#Cc1cc(=O)n(-c2cccc([N+](=O)[O-])c2)c2nc(Nc3ccccc3OC)ncc12` [Example 54, 5-Ethynyl-2-((2-methoxyphenyl)amino)-8-(3-nitrophenyl)pyrido[2,3-d]pyrimidin-7(8H)-one], the concentration for half-maximal inhibition (IC50) in test [1] was > 3000 nM; in test [2], > 3000 nM; in test [3], > 3 µM; in test [4] it was > 10000 nM.

These data come from patent US20260137703A1, “2-AMINO-PYRIDO[2,3-D]PYRIMIDIN-7(8H)-ONE AND 7-AMINO-1-PYRIMIDO[4,5-D]PYRIMIDIN-2(1 H)-ONE DERIVATIVES AS EGFR INHIBITORS FOR THE TREATMENT OF CANCER” (Cancer Research Technology Limited, priority 2022, published 2026).
